Experimental data reported in US7858806B2, “Crystal form of 5-hydroxy-1-methylhydantoin” (Nippon Zoki Pharmaceutical Co., Ltd., priority 2002, dated 2010).
“Also recorded” adds a separate entry of the source.

How the values were obtained:
Format in all cases: physicochemical
[1] = Measurement of bulk density (graduated cylinder, before and after tight packing); settings: 40 g in graduated cylinder; for Bulk Density After Tight Packing: after patting until volume unchanged
Protocol: Each 40 g of the I-form crystals produced in Reference Example 1 and the II-form crystals produced in Example 2 were placed in a graduated cylinder to measure the volume whereby bulk density was calculated. After that, each graduated cylinder was lightly patted by hand under the same condition until the volume of the dry powder became unchanged so that the crystals were tightly packed. The volume after the tight packing was measured and bulk density was calculated.

[2] = Adhesion onto solid surface during handling; settings: II-form compared with I-form crystals, after various handlings
Protocol: In addition, in the II-form crystals of the present invention, the bulk density is higher than in the I-form crystals and the volume for the same weight is small whereby it is now possible to manufacture small tablets and so to provide the tablets which are easily administered to patients. The advantage of high bulk density is also advantageous in terms of storage and handling when production is conducted in an industrial scale. Further, it has been found after various handlings of both II-form crystals and I-form crystals that adhesion onto the solid surface such as glass wall is lower in the II-form crystals than in the I-form crystals. Accordingly, in the case of the II-form crystals, loss during the manufacture can be reduced and labor such as cleaning and checking for removal of adhered things to the manufacturing devices and apparatuses can be reduced as well.

[3] = Stability of the crystal form
Solubility in water = test: Solubility in water

Structure (SMILES): CN1C(=O)NC(=O)C1O (stereo not shown) [II-form crystals, 5-hydroxy-1-methylimidazolidin-2,4-dione]
- Bulk Density After Tight Packing ([1]; listed as II-form Crystals): 0.64 g/mL
- Bulk Density Before Tight Packing ([1]; listed as II-form Crystals): 0.54 g/mL
- adhesion onto the solid surface such as glass wall [2]: lower
- stability [3]: sufficient stability

Structure (SMILES): CN1C(=O)NC(=O)C1O (stereo not shown) [I-form crystals, 5-hydroxy-1-methylimidazolidin-2,4-dione, reference compound]
- Bulk Density After Tight Packing ([1]; listed as I-form Crystals): 0.46 g/mL
- Bulk Density Before Tight Packing ([1]; listed as I-form Crystals): 0.35 g/mL

Structure (SMILES): CN1C(=O)NC(=O)C1O (stereo not shown) [5-hydroxy-1-methylhydantoin, 5-hydroxy-1-methylimidazolidin-2,4-dione]
- solubility in water (Solubility in water): very highly soluble in water; also recorded: very easily soluble in water
